# How the values were obtained:
# [1] = test system: panel of 106 targets, including receptors, enzymes, ion channels, and transporters; test: Selectivity panel (Eurofins Panlabs), overall; details: 10 μmol/L
# Description: (§1) The selectivity of T‐495 at 10 μmol/L against a panel of 106 targets, including receptors, enzymes, ion channels, and transporters, was characterized (Eurofins Panlabs Taiwan Ltd., Taipei, Taiwan).
# [2] = target: T1, Protein tyrosine kinase, EGF receptor (Homo sapiens, UniProt P00533); test: Selectivity panel; assay type: biochemical
# T1 construct: purchased Eurofins Panlabs Taiwan Ltd
# Description: as §1
# [3] = target: T2, Nitric oxide synthase, neuronal (nNOS) (Rattus norvegicus, UniProt P29476); test: Selectivity panel; assay type: biochemical
# T2 construct: purchased Eurofins Panlabs Taiwan Ltd
# Description: as §1
# [4] = test system: CaMKIIα‐tTA/A53T α‐syn dTg mice; test: Contextual fear conditioning (CFC) test; assay type: in vivo, mouse
# Experimental: The CFC test was performed in a clear conditioning chamber (33 cm wide, 25 cm long, and 28 cm high; O’Hara & Co., Ltd.) surrounded by a sound‐attenuating box. The illumination in the chamber was maintained at 100 lux. Conditioned stimulus (CS) and unconditioned stimulus (US) were automatically delivered by a tone generator and a shock generator (O’Hara & Co., Ltd.), respectively. On Day 1 (habituation phase), vehicle was orally administered, and mice were placed in the conditioning chamber. They were allowed to freely explore for 120 seconds and then returned to their home cages. […] Mice were placed in the chamber for 120 seconds before the onset of a tone (CS, 60 dB for 30 s). The last 2 seconds of the CS were paired with a foot shock (US, 0.25 mA), and mice were removed and returned to their home cages 180 seconds after the US. […] Mice were again placed in the same chamber for 180 seconds. Freezing behavior was analyzed using ImageJ FZ4 (O’Hara & Co., Ltd.) during the conditioning and retention phases.
# [5] = test system: CaMKIIα‐tTA/A53T α‐syn dTg mice; test: Y‐maze task; assay type: in vivo, mouse; details: 3 mg/kg p.o.
# Experimental: The Y‐maze was fabricated from gray plastic and consisted of three arms (40 cm long, 12 cm high, 3 cm wide at the bottom, and 10 cm wide at the top) with an angle of 120°. Visual cues were placed outside each arm, and the apparatus was illuminated at 10 lux. […] An arm entry was defined as all four paws of the mouse being in the arm, and the sequence of arm entries was monitored with a video camera and counted manually. An alternation was defined as successive entries into the three arms on overlapping triplet sets.36 The percentage of alternation was calculated as the ratio of actual to possible alternations (total number of arm entries minus 2) multiplied by 100.
# T1 sequence (P00533 25-1210): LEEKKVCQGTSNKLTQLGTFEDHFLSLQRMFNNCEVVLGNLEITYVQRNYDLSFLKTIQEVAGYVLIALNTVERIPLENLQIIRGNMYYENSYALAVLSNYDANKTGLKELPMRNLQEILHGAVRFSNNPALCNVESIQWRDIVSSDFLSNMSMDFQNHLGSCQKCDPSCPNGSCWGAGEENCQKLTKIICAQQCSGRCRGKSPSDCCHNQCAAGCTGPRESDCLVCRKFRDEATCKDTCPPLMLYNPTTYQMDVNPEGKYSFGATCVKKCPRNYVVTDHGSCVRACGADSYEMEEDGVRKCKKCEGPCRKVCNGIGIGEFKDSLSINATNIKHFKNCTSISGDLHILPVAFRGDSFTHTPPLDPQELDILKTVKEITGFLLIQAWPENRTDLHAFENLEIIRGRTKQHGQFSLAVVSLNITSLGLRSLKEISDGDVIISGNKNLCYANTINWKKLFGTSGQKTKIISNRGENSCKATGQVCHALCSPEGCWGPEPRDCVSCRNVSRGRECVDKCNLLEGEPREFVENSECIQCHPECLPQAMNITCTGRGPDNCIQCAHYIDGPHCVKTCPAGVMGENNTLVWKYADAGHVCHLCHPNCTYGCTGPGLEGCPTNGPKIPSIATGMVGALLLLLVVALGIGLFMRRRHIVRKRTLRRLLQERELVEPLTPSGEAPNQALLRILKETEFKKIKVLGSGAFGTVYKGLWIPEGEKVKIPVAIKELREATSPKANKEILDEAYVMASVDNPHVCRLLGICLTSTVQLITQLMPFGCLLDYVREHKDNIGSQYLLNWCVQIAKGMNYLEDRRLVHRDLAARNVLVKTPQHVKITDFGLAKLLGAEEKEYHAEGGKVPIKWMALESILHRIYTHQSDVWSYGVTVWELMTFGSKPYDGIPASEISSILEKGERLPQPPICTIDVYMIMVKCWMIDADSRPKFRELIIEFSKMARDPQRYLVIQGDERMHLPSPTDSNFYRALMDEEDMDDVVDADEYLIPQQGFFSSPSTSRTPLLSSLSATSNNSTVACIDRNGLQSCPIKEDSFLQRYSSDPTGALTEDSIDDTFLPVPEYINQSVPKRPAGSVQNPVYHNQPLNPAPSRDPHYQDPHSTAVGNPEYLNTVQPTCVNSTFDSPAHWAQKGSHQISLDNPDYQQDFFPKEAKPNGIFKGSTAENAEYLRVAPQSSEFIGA
smiles,measurement,setting,value
"Cc1c(Cc2ccc(Cl)nc2)cc2c(c1Cl)OCN([C@H]1CCC[C@@H]1O)C2=O [T‐495, 8‐chloro‐6‐((6‐chloropyridin‐3‐yl)methyl)‐3‐((1S,2S)‐2‐hydroxycyclopentyl)‐7‐methyl‐2,3‐dihydro‐4H‐1,3‐benzoxazin‐4‐one]",significant inhibition or stimulation (≥50%) in panel of 106 targets,[1],"No significant inhibition or stimulation (≥50%) was observed, except for two targets"
same,inhibition at 10 µM,[2],9%
same,inhibition at 10 µM,[3],5%
same,level of freezing behavior during the conditioning phase,[4]; 3 mg/kg p.o.,did not change
same,reduced level of freezing behavior during the retention phase,[4]; 3 mg/kg p.o. 1 h before conditioning and retention,significantly reversed
same,reduced percentage of alternations,[5],significantly reversed

# Reference: publication PMC6986443, “T‐495, a novel low cooperative M1 receptor positive allosteric modulator, improves memory deficits associated with cholinergic dysfunction and is characterized by low gastrointestinal side effect risk” (Pharmacology Research & Perspectives, 2020)
